Results on 30 compounds are retold here after US12378224B2 (Dong-A Socio Holdings Co., Ltd., priority 2016, dated 2025).

Molecules are shown by their SMILES.

human MER (528-end), sequence (Q12866 528-999 limits assumed): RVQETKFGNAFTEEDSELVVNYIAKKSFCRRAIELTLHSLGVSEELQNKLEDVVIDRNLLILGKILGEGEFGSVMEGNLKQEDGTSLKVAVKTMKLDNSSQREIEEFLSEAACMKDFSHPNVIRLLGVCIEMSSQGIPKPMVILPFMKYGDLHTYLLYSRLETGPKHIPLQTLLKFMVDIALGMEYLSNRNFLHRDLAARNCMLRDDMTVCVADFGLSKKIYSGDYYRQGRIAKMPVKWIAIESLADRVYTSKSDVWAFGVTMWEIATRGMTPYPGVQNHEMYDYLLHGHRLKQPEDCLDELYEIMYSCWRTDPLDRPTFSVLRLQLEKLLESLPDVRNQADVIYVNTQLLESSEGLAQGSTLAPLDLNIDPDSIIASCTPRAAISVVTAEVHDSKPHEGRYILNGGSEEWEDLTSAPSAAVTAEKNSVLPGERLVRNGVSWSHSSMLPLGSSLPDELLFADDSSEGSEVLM

This test deals with human MER (528-end) (Homo sapiens (Human), UniProt Q12866). Put plainly: HTRF Kinase Activity Biochemical Assay (KinEASE-TK). The conditions noted are these: 10 uM ATP. A digest of the protocol:
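Recombinant human MER (528-end) phosphorylated biotin-TK peptide substrate, 1 h at room temperature. Reaction stopped with detection buffer containing 0.375 nM Eu3+-cryptate anti-TK antibody and 0.062 uM streptavidin-XL665, 1 h further. Activity taken as HTRF ratio 665/620 nm ×10,000, 340 nm excitation.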
In general, IC50 refers to the midpoint of a concentration-inhibition curve. Lower therefore signals inhibition by little substance. For `Cn1cc(-c2cnc(N)c(C(=O)N[C@@H]3CCN(CC=Cc4ccccc4)C3)c2)cn1` [Example 228, (R)-2-amino-N-(1-cinnamylpyrrolidin-3-yl)-5-(1-methyl-1H-pyrazol-4-yl)nicotinamide], the IC50 fell in the range of 0.1 to 1 µM.
With `COc1ccc(O)c(CN2CC[C@@H](NC(=O)c3cc(-c4cnn(C)c4)cnc3N)C2)c1` [Example 219, (R)-2-amino-N-(1-(2-hydroxy-5-methoxybenzyl)pyrrolidin-3-yl)-5-(1-methyl-1H-pyrazol-4-yl)nicotinamide], the IC50 is greater than 1 µM.
The result for `Cn1cc(-c2cnc(N)c(C(=O)N[C@@H]3CCN(C(=O)c4cccc(-c5cccc(C(=O)N6CCSCC6)c5)c4)C3)c2)cn1` [Example 463, (R)-2-amino-5-(1-methyl-1H-pyrazol-4-yl)-N-(1-(3′-(thiomorpholine-4-carbonyl)-[1,1′-biphenyl]-3-carbonyl)pyrrolidin-3-yl)nicotinamide] reads greater than 1 µM.
The result for `COc1ccc(Oc2ccc(-c3ccc(C(=O)N4CC[C@@H](NC(=O)c5cc(-c6cnn(C)c6)cnc5N)C4)cc3)cc2)cc1` [Example 528, (R)-2-amino-N-(1-(4′-(4-methoxyphenoxy)-[1,1′-biphenyl]-4-carbonyl)pyrrolidin-3-yl)-5-(1-methyl-1H-pyrazol-4-yl)nicotinamide] reads greater than 1 µM; that for `Cn1cc(-c2cnc(N)c(C(=O)N[C@@H]3CCN(C(=O)c4ccc(-c5ccc(F)cc5Cl)cc4Cl)C3)c2)cn1` [Example 694, (R)-2-amino-N-(1-(2′,3-dichloro-4′-fluoro-[1,1′-biphenyl]-4-carbonyl)pyrrolidin-3-yl)-5-(1-methyl-1H-pyrazol-4-yl)nicotinamide], greater than 1 µM; that for `Cn1cc(-c2cnc(N)c(C(=O)N[C@@H]3CCN(C(=O)Oc4ccc5ccccc5c4N)C3)c2)cn1` [Example 69, 1-aminonaphthalen-2-yl (R)-3-(2-amino-5-(1-methyl-1H-pyrazol-4-yl)nicotinamido)pyrrolidine-1-carboxylate], 0.1 to 1 µM.
The result for `Cn1cc(-c2cnc(N)c(C(=O)N[C@@H]3CCN(C(=O)Nc4cccc(CN5CCOCC5)c4)C3)c2)cn1` [Example 26, (R)-2-amino-5-(1-methyl-1H-pyrazol-4-yl)-N-(1-((3-(morpholinomethyl)phenyl)carbamoyl)pyrrolidin-3-yl)nicotinamide] reads greater than 1 µM; that for `Cn1cc(-c2cnc(N)c(C(=O)N[C@@H]3CCN(C(=O)c4ccc(-c5ccccc5)cn4)C3)c2)cn1` [Example 396, (R)-2-amino-5-(1-methyl-1H-pyrazol-4-yl)-N-(1-(5-phenylpicolinoyl)pyrrolidin-3-yl)nicotinamide], greater than 1 µM.
For the compound `COc1ccc(OC)c(CN2CC[C@@H](NC(=O)c3cc(-c4cnn(C)c4)cnc3N)C2)c1` [Example 218, (R)-2-amino-N-(1-(2,5-dimethoxybenzyl)pyrrolidin-3-yl)-5-(1-methyl-1H-pyrazol-4-yl)nicotinamide], the IC50 was greater than 1 µM.
In turn, `Cn1cc(-c2cnc(N)c(C(=O)N[C@@H]3CCN(C(=O)c4ccc(-c5ccsc5)cc4)C3)c2)cn1` [Example 358, (R)-2-amino-5-(1-methyl-1H-pyrazol-4-yl)-N-(1-(4-(thiophen-3-yl)benzoyl)pyrrolidin-3-yl)nicotinamide] gave an IC50 of 0.1 to 1 µM.
Take `Cn1cc(-c2cnc(N)c(C(=O)N[C@@H]3CCN(C(=O)Nc4ccn(C)n4)C3)c2)cn1` [Example 12, (R)-2-amino-N-(1-((1-methyl-1H-pyrazol-3-yl)carbamoyl)pyrrolidin-3-yl)-5-(1-methyl-1H-pyrazol-4-yl)nicotinamide]: the IC50 is greater than 1 µM.
The result for `Cn1cc(-c2cnc(N)c(C(=O)N[C@@H]3CCN(C(=O)c4cccc(-c5ccncc5)c4)C3)c2)cn1` [Example 473, (R)-2-amino-5-(1-methyl-1H-pyrazol-4-yl)-N-(1-(3-(pyridin-4-yl)benzoyl)pyrrolidin-3-yl)nicotinamide] reads greater than 1 µM.
Compound `CC1=C(C(=O)N2CC[C@@H](NC(=O)c3cc(-c4cnn(C)c4)cnc3N)C2)Cc2ccccc21` [Example 497, (R)-2-amino-N-(1-(3-methyl-1H-indene-2-carbonyl)pyrrolidin-3-yl)-5-(1-methyl-1H-pyrazol-4-yl)nicotinamide] displayed an IC50 greater than 1 µM.
`Cn1cc(-c2cnc(N)c(C(=O)N[C@@H]3CCN(C(=O)c4ccc(-c5cc6ccccc6s5)cc4)C3)c2)cn1` [Example 490, (R)-2-amino-N-(1-(4-(benzo[b]thiophen-2-yl)benzoyl)pyrrolidin-3-yl)-5-(1-methyl-1H-pyrazol-4-yl)nicotinamide] displayed an IC50 greater than 1 µM.
As for `Cn1cc(-c2cnc(N)c(C(=O)N[C@@H]3CCN(C(=O)N[C@@H]4CCCC[C@@H]4O)C3)c2)cn1` [Example 31, 2-amino-N—((R)-1-(((1R,2S)-2-hydroxycyclohexyl)carbamoyl)pyrrolidin-3-yl)-5-(1-methyl-1H-pyrazol-4-yl)nicotinamide], the figure is greater than 1 µM.
As to `Cn1cc(-c2cnc(N)c(C(=O)N[C@@H]3CCN(C(=O)Nc4cccc(-c5ccccc5)c4)C3)c2)cn1` [Example 23, (R)—N-(1-([1,1′-biphenyl]-3-ylcarbamoyl)pyrrolidin-3-yl)-2-amino-5-(1-methyl-1H-pyrazol-4-yl)nicotinamide], the IC50 lay in the range of 0.1 to 1 µM.
Compound `Cn1cc(-c2cnc(N)c(C(=O)N[C@@H]3CCN(C(=O)Oc4ccc(Oc5ccccc5)cc4)C3)c2)cn1` [Example 102, 4-phenoxyphenyl (R)-3-(2-amino-5-(1-methyl-1H-pyrazol-4-yl)nicotinamido)pyrrolidine-1-carboxylate] had an IC50 of 0.1 to 1 µM.
On to `Cn1cc(-c2cnc(N)c(C(=O)N[C@@H]3CCN(C(=O)/C=C/c4ccc(-c5ccccc5)cc4)C3)c2)cn1` [Example 730, (R,E)-N-(1-(3-([1,1′-biphenyl]-4-yl)acryloyl)pyrrolidin-3-yl)-2-amino-5-(1-methyl-1H-pyrazol-4-yl)nicotinamide], for which the IC50 was in the range of 0.1 to 1 µM.
As for `Cn1cc(-c2cnc(N)c(C(=O)N[C@@H]3CCN(C(=O)c4ccc(-c5ccc(C(C)(C)N6CCNCC6)cc5)cc4)C3)c2)cn1` [Example 384, (R)-2-amino-5-(1-methyl-1H-pyrazol-4-yl)-N-(1-(4′-(2-(piperazin-1-yl)propan-2-yl)-[1,1′-biphenyl]-4-carbonyl)pyrrolidin-3-yl)nicotinamide], the figure is 0.01 to 0.1 µM; as for `CN(C)CCNCc1ccc(-c2cccc(OC(=O)N3CC[C@@H](NC(=O)c4cc(-c5cnn(C)c5)cnc4N)C3)c2)cc1` [Example 308, 4′-(((2-(dimethylamino)ethyl)amino)methyl)-[1,1′-biphenyl]-3-yl (R)-3-(2-amino-5-(1-methyl-1H-pyrazol-4-yl)nicotinamido)pyrrolidine-1-carboxylate], 0.1 to 1 µM.
In turn, `CN1CCN(c2ccc(C(=O)N3CC[C@@H](NC(=O)c4cc(-c5cnn(C)c5)cnc4N)C3)cc2)CC1` [Example 416, (R)-2-amino-5-(1-methyl-1H-pyrazol-4-yl)-N-(1-(4-(4-methylpiperazin-1-yl)benzoyl)pyrrolidin-3-yl)nicotinamide] yielded an IC50 greater than 1 µM.
`Nc1ncc(-c2cnn(C3CCNCC3)c2)cc1C(=O)N[C@@H]1CCN(Cc2c(Cl)cccc2Cl)C1` [Example 159, (R)-2-amino-N-(1-(2,6-dichlorobenzyl)pyrrolidin-3-yl)-5-(1-(piperidin-4-yl)-1H-pyrazol-4-yl)nicotinamide] registered an IC50 greater than 1 µM.
`Cn1cc(-c2cnc(N)c(C(=O)N[C@@H]3CCN(C(=O)c4ccc(-c5ccc(CC#N)cc5)cc4)C3)c2)cn1` [Example 676, (R)-2-amino-N-(1-(4′-(cyanomethyl)-[1,1′-biphenyl]-4-carbonyl)pyrrolidin-3-yl)-5-(1-methyl-1H-pyrazol-4-yl)nicotinamide] registered a 50% inhibitory concentration (IC50) of 0.1 to 1 µM.
In turn, `CN1CCN(Cc2ccc(-c3cccc(OC(=O)N4CC[C@@H](NC(=O)c5cc(-c6cnn(C)c6)cnc5N)C4)c3)cc2)CC1` [Example 275, 4′-((4-methylpiperazin-1-yl)methyl)-[1,1′-biphenyl]-3-yl (R)-3-(2-amino-5-(1-methyl-1H-pyrazol-4-yl)nicotinamido)pyrrolidine-1-carboxylate] displayed an IC50 of 0.1 to 1 µM.
As for `Cn1cc(-c2cnc(N)c(C(=O)N[C@@H]3CCN(C(=O)Oc4cc([N+](=O)[O-])ccc4N)C3)c2)cn1` [Example 100, 2-amino-5-nitrophenyl (R)-3-(2-amino-5-(1-methyl-1H-pyrazol-4-yl)nicotinamido)pyrrolidine-1-carboxylate], the figure is greater than 1 µM; as for `Nc1ncc(-c2cnn(C3CCNCC3)c2)cc1C(=O)N[C@@H]1CCN(CC2CC=CCC2)C1` (stereo partly drawn) [Example 169, 2-amino-N-((3R)-1-(cyclohex-3-en-1-ylmethyl)pyrrolidin-3-yl)-5-(1-(piperidin-4-yl)-1H-pyrazol-4-yl)nicotinamide], greater than 1 µM.
`Cc1nn(C)cc1-c1ccc(C(=O)N2CC[C@@H](NC(=O)c3cc(-c4cnn(C)c4)cnc3N)C2)cc1` [Example 488, (R)-2-amino-N-(1-(4-(1,3-dimethyl-1H-pyrazol-4-yl)benzoyl)pyrrolidin-3-yl)-5-(1-methyl-1H-pyrazol-4-yl)nicotinamide] gave an IC50 of 0.1 to 1 µM.
The result for `CC(C)NC(=O)N1CC[C@@H](NC(=O)c2cc(-c3cnn(C)c3)cnc2N)C1` [Example 8, (R)-2-amino-N-(1-(isopropylcarbamoyl)pyrrolidin-3-yl)-5-(1-methyl-1H-pyrazol-4-yl)nicotinamide] reads greater than 1 µM; that for `Cn1cc(-c2cnc(N)c(C(=O)N[C@@H]3CCN(C(=O)Oc4cccc(-c5ccc(CN[C@H]6CCCNC6)cc5)c4)C3)c2)cn1` [Example 315, 4′-((((S)-piperidin-3-yl)amino)methyl)-[1,1′-biphenyl]-3-yl (R)-3-(2-amino-5-(1-methyl-1H-pyrazol-4-yl)nicotinamido)pyrrolidine-1-carboxylate], 0.1 to 1 µM; that for `Nc1ncc(-c2cccnc2)cc1C(=O)N[C@@H]1CCN(C(=O)c2ccc(-c3ccccc3)cc2)C1` [Example 558, (R)—N-(1-([1,1′-biphenyl]-4-carbonyl)pyrrolidin-3-yl)-6-amino-[3,3′-bipyridine]-5-carboxamide], 0.01 to 0.1 µM.
